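Growth conditions: 96-well plates. Treatment: test compound, 48 hours, 5 concentrations. Analysis: linear interpolation between bracketing concentrations; unreached endpoints set to highest concentration. GI50 = concentration required for 50% inhibition of growth.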 Calls of active or inactive are those of the source. No stated cut-off is given here; in the data, active = GI50 up to about 1.1 µM and inactive = higher.
Columns and labels:
Assay in all cases: growth of human tumour cells (NCI), 48 h
[1] = test system: A549
[2] = test system: K562
[3] = test system: T47D
[4] = test system: SNB-19
[5] = test system: Hs-578T
[6] = test system: UO-31
[7] = test system: EKVX
[8] = test system: PC-3
[9] = test system: SNB-75
[10] = test system: 786-0
[11] = test system: RXF 393
[12] = test system: HCT-116
[13] = test system: HOP-92
[14] = test system: NCI-H23
[15] = test system: NCI/ADR-RES
[16] = test system: CAKI-1
[17] = test system: SN12C
[18] = test system: OVCAR-4
[19] = test system: DU-145

SMILES | GI50 [1] | GI50 [2] | GI50 [3] | GI50 [4] | GI50 [5] | GI50 [6] | GI50 [7] | GI50 [8] | GI50 [9] | GI50 [10] | GI50 [11] | GI50 [12] | GI50 [13] | GI50 [14] | GI50 [15] | GI50 [16] | GI50 [17] | GI50 [18] | GI50 [19]
O=[N+]([O-])c1nccn1CC1OC(n2ccnc2[N+](=O)[O-])C(O)C(O)C1O (configuration not stated) | > 100 µM (inactive) | > 100 µM (inactive) | 23.9 µM (inactive) | > 100 µM (inactive) | > 100 µM (inactive) | > 100 µM (inactive) | > 100 µM (inactive) | > 100 µM (inactive) | > 100 µM (inactive) | > 100 µM (inactive) | > 100 µM (inactive) | > 100 µM (inactive) | > 100 µM (inactive) | > 100 µM (inactive) |  |  |  |  | 
C=C(C)CCC(=O)[C@](C)(O)[C@H]1[C@H](O)C[C@@]2(C)[C@@H]3CCc4c(cc(OC5OC(CO)C(O)C(O)C5O)c(O)c4C)C3(C)C(=O)C[C@]12C (some centres not stated) | > 100 µM (inactive) | > 100 µM (inactive) | > 100 µM (inactive) | > 100 µM (inactive) |  | > 100 µM (inactive) | > 100 µM (inactive) | > 100 µM (inactive) | > 100 µM (inactive) | > 100 µM (inactive) | > 100 µM (inactive) | > 100 µM (inactive) | > 100 µM (inactive) | > 100 µM (inactive) | > 100 µM (inactive) | > 100 µM (inactive) | > 100 µM (inactive) | > 100 µM (inactive) | > 100 µM (inactive)
Nn1c(S)nnc1N/N=C1/C(=O)Nc2c(Cl)cc(Cl)cc21 | > 100 µM (inactive) | 31.2 µM (inactive) |  | 76 µM (inactive) |  | 47.6 µM (inactive) | > 100 µM (inactive) |  |  | 97.3 µM (inactive) | 17.9 µM (inactive) | > 100 µM (inactive) | 73.1 µM (inactive) | > 100 µM (inactive) |  | 69 µM (inactive) | 94.8 µM (inactive) | > 100 µM (inactive) | 
O=C1Nc2ccccc2/C1=N/Nc1nc(-c2ccc(Cl)c(Cl)c2)cs1 | > 100 µM (inactive) |  | 26 µM (inactive) | > 100 µM (inactive) |  | 7.01 µM (inactive) | > 100 µM (inactive) | 24 µM (inactive) | 49.3 µM (inactive) | > 100 µM (inactive) |  | 90.6 µM (inactive) | > 100 µM (inactive) | 46.1 µM (inactive) | > 100 µM (inactive) | 5.69 µM (inactive) | > 100 µM (inactive) | 77.6 µM (inactive) | 92 µM (inactive)
Cc1c(C)c2ccc(O)cc2[nH]c1=O | > 100 µM (inactive) | > 100 µM (inactive) | > 100 µM (inactive) | > 100 µM (inactive) |  | > 100 µM (inactive) | > 100 µM (inactive) | > 100 µM (inactive) | 98.9 µM (inactive) | > 100 µM (inactive) | > 100 µM (inactive) | > 100 µM (inactive) | > 100 µM (inactive) | > 100 µM (inactive) | > 100 µM (inactive) | > 100 µM (inactive) | > 100 µM (inactive) | > 100 µM (inactive) | > 100 µM (inactive)
COc1cccc(NC(=O)CC(=O)Nc2cccc(OC)c2)c1 | > 100 µM (inactive) | > 100 µM (inactive) |  | > 100 µM (inactive) | > 100 µM (inactive) | > 100 µM (inactive) | > 100 µM (inactive) | > 100 µM (inactive) |  | > 100 µM (inactive) |  | > 100 µM (inactive) | > 100 µM (inactive) | > 100 µM (inactive) | > 100 µM (inactive) | > 100 µM (inactive) | > 100 µM (inactive) | > 100 µM (inactive) | > 100 µM (inactive)
O=C1CCC(Cl)=CC2CCCN12 (configuration not stated) | > 100 µM (inactive) | > 100 µM (inactive) |  | > 100 µM (inactive) |  | > 100 µM (inactive) | > 100 µM (inactive) |  | > 100 µM (inactive) | > 100 µM (inactive) | > 100 µM (inactive) | > 100 µM (inactive) | > 100 µM (inactive) | > 100 µM (inactive) |  | > 100 µM (inactive) | > 100 µM (inactive) |  | 
CC(C)(C)n1[nH]c(=O)n(C(C)(C)C)c1=O | > 100 µM (inactive) | > 100 µM (inactive) | > 100 µM (inactive) | > 100 µM (inactive) | > 100 µM (inactive) | > 100 µM (inactive) |  | > 100 µM (inactive) | > 100 µM (inactive) | > 100 µM (inactive) | > 100 µM (inactive) | > 100 µM (inactive) | > 100 µM (inactive) | > 100 µM (inactive) |  | > 100 µM (inactive) | > 100 µM (inactive) | > 100 µM (inactive) | > 100 µM (inactive)
COC(=O)c1csc(-c2nc(CCNC(=O)OC(C)(C)C)sc2Br)n1 | > 100 µM (inactive) | > 100 µM (inactive) |  | > 100 µM (inactive) | > 100 µM (inactive) | > 100 µM (inactive) | > 100 µM (inactive) | 55.7 µM (inactive) | > 100 µM (inactive) | > 100 µM (inactive) | > 100 µM (inactive) | > 100 µM (inactive) |  | > 100 µM (inactive) | > 100 µM (inactive) |  | > 100 µM (inactive) |  | > 100 µM (inactive)
CCCCCCCCOP(=O)(O)OP(=O)(O)OCC1OC(n2ccc(N)nc2=O)C(O)C1O (configuration not stated) | > 100 µM (inactive) | > 100 µM (inactive) | > 100 µM (inactive) | > 100 µM (inactive) | > 100 µM (inactive) | > 100 µM (inactive) | > 100 µM (inactive) | > 100 µM (inactive) | > 100 µM (inactive) | > 100 µM (inactive) | > 100 µM (inactive) | > 100 µM (inactive) | > 100 µM (inactive) | > 100 µM (inactive) | > 100 µM (inactive) | > 100 µM (inactive) | > 100 µM (inactive) | > 100 µM (inactive) | 
c1cc2sc1CSCCSCCSC2 | > 100 µM (inactive) | > 100 µM (inactive) | > 100 µM (inactive) | > 100 µM (inactive) |  | > 100 µM (inactive) | > 100 µM (inactive) | > 100 µM (inactive) | > 100 µM (inactive) | > 100 µM (inactive) |  | > 100 µM (inactive) | > 100 µM (inactive) | > 100 µM (inactive) | > 100 µM (inactive) |  | > 100 µM (inactive) | > 100 µM (inactive) | > 100 µM (inactive)
CCCCN(CCCC)C(=C(C(Cl)=C(Cl)Cl)[N+](=O)[O-])N(CCCC)CCCC | > 100 µM (inactive) | 0.0119 µM (active) | 73.8 µM (inactive) | > 100 µM (inactive) |  | > 100 µM (inactive) | 67.5 µM (inactive) | 57 µM (inactive) | > 100 µM (inactive) | > 100 µM (inactive) |  | 67.9 µM (inactive) | 90.8 µM (inactive) | 82.2 µM (inactive) | > 100 µM (inactive) | > 100 µM (inactive) | > 100 µM (inactive) | > 100 µM (inactive) | > 100 µM (inactive)
CC(=O)C1C(=O)C(=O)N(c2ccc([N+](=O)[O-])cc2Cl)C1=O (configuration not stated) | > 100 µM (inactive) |  |  | > 100 µM (inactive) | > 100 µM (inactive) | 56.1 µM (inactive) | > 100 µM (inactive) | 82.2 µM (inactive) | > 100 µM (inactive) | > 100 µM (inactive) | 97.9 µM (inactive) | > 100 µM (inactive) | 56.6 µM (inactive) | > 100 µM (inactive) | > 100 µM (inactive) | > 100 µM (inactive) | > 100 µM (inactive) | > 100 µM (inactive) | > 100 µM (inactive)
Cn1c(S)nnc1-c1csc(-c2ccc(Cl)cc2)n1 | 32.6 µM (inactive) | > 100 µM (inactive) | 35.3 µM (inactive) | 17.5 µM (inactive) | 29.7 µM (inactive) | 22.5 µM (inactive) | 30.7 µM (inactive) | 35.7 µM (inactive) | 18.7 µM (inactive) | 17 µM (inactive) | 19 µM (inactive) | 17.7 µM (inactive) | 12 µM (inactive) | 15 µM (inactive) | 25.2 µM (inactive) | 23.4 µM (inactive) | 38.8 µM (inactive) | 26.1 µM (inactive) | 
CCOC(=O)c1c(-c2ccc(OC)c(O)c2)c(C#N)c(=S)n(C2OC(CO)C(O)C(O)C2O)c1-c1ccccc1 (configuration not stated) | > 100 µM (inactive) | > 100 µM (inactive) |  | > 100 µM (inactive) | > 100 µM (inactive) | > 100 µM (inactive) | 1.6 µM (inactive) | > 100 µM (inactive) |  | > 100 µM (inactive) | > 100 µM (inactive) | > 100 µM (inactive) |  | > 100 µM (inactive) | > 100 µM (inactive) | > 100 µM (inactive) | > 100 µM (inactive) | > 100 µM (inactive) | > 100 µM (inactive)
O=C1OC(C(O)CO)C(C(O)CO)OC1=O (configuration not stated) | > 10 µM (inactive) | > 10 µM (inactive) | > 10 µM (inactive) | > 10 µM (inactive) | > 10 µM (inactive) | > 10 µM (inactive) | > 10 µM (inactive) | > 10 µM (inactive) |  | > 10 µM (inactive) | > 10 µM (inactive) |  |  | > 10 µM (inactive) | > 10 µM (inactive) | > 10 µM (inactive) | > 10 µM (inactive) | > 10 µM (inactive) | 
CC1NOC(NS(=O)(=O)c2ccc(/N=N/c3c(O)c(C(=O)O)cc4ccccc34)cc2)C1C (configuration not stated) | > 100 µM (inactive) | > 100 µM (inactive) |  | 59.2 µM (inactive) | > 100 µM (inactive) | 55 µM (inactive) | > 100 µM (inactive) | > 100 µM (inactive) | > 100 µM (inactive) | > 100 µM (inactive) | > 100 µM (inactive) | > 100 µM (inactive) | > 100 µM (inactive) |  | > 100 µM (inactive) | > 100 µM (inactive) |  | > 100 µM (inactive) | 

Reference: ChEMBL document CHEMBL1201862, “PubChem BioAssay data set” (2004)
